From US20240327380A1, “BTK INHIBITORS” (BIOGEN MA INC., priority 2020, published 2024) come the findings set out here.

The subject of test [1] is CD69 expression on CD19+ B cells in human whole blood. The test is described as follows: In Vitro whole blood CD69 Assay. In kind it is cell-based. As to conditions: B-cell; human heparinized whole blood, anti-human IgD stimulation overnight, percentage of CD19+ B cells expressing CD69, flow cytometry; read-out: IC50. Here is the method: In Vitro whole blood CD69 Assay
Human heparinized venous blood from health donors was aliquoted into 96-well plate and “spiked” with serial dilutions of formula I compounds in DMSO or with DMSO without drug. The final concentration of DMSO in all wells was 0.1%. The plate was incubated at 37° C. for 30 min. Drug-containing samples were stimulated with […] mouse anti-human IgD-dextran (1A62) or […] polyclonal rabbit F(ab′)2 anti-human IgD. Phosphate-buffered saline (PBS) was added to the negative control unstimulated sample and the plates were incubated overnight (18 to 22 hours) at 37° C. Cells were stained with fluorochrome-conjugated anti-CD19 and anti-CD69 antibodies. Lyse/fix solution was used to remove red blood cells by hypotonic lysis and to fix the remaining cells, which were then analyzed by flow cytometry. CD19+ B cells were gated and analyzed for CD69 expression. The percentage of B cells expressing CD69 was plotted versus the log 10 of the concentration of the drug and the best-fit curves (variable Hill slope) were generated to obtain the IC50 value.
On the technique in general: In flow cytometry, cells or beads pass a laser one at a time.

The target in test [2] is T1, active BTK enzyme (Upstate 14-552) (Homo sapiens, UniProt Q06187).
T1 construct: purchased Upstate 14-552
T1 sequence (Q06187 whole entry): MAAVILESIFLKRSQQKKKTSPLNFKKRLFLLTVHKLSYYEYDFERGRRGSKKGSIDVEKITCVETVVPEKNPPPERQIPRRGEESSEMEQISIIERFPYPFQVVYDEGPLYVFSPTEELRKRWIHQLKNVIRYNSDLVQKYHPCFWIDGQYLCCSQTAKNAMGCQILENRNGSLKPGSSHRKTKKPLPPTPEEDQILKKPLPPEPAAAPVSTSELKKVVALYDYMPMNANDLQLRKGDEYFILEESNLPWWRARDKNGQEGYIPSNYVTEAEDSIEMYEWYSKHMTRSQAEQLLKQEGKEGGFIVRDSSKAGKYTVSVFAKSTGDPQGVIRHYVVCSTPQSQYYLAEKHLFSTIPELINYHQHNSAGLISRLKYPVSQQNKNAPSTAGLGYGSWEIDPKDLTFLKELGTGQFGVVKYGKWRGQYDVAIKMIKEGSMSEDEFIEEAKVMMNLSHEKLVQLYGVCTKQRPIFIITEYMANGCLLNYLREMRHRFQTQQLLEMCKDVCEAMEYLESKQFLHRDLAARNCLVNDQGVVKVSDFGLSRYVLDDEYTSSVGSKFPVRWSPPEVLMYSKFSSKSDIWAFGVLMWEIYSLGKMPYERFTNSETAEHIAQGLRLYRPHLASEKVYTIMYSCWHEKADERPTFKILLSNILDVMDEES
The test is described as follows: In Vitro BTK Kinase Assay: Btk-PolyGAT-LS Assay. The test is classed as biochemical. Conditions: ATP 10 μM, polyGAT 100 nM, BTK 0.25 nM, 30 minutes, TRF readout. In short, it runs like this: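 Active BTK (0.25 nM) phosphorylates fluorescein-polyGAT peptide (100 nM) with 10 µM ATP in Tris-HCl pH 7.5/MgCl2/DTT buffer, 30 min, EDTA stop. Phosphopeptide detected by TR-FRET with Tb-PY20 antibody after 45 min at room temperature; IC50 from four-parameter fit against DMSO and EDTA controls.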

Usually IC50 stands for the concentration that gives 50% inhibition.

Molecules are shown by their SMILES.

Take `Cc1cc(-c2ccncc2N2CCN(C(=O)/C=C/CN(C)C)CC2)ccc1CNC(=O)c1noc(C(C)(C)C)c1F` [Example 95, (E)-5-(tert-butyl)-N-(4-(3-(4-(4-(dimethylamino)but-2-enoyl)piperazin-1-yl)pyridin-4-yl)-2-methylbenzyl)-4-fluoroisoxazole-3-carboxamide]: the IC50 was in the range of 0.1 to 1 µM in test [1] and 0.001 to 0.01 µM in test [2].

For the compound `Cc1cc(-c2ncncc2N2CCN(C(=O)/C=C/CN(C)C)CC2)ccc1CNC(=O)c1nc(C2(C)CC2)no1` [Example 85, (E)-N-(4-(5-(4-(4-(dimethylamino)but-2-enoyl)piperazin-1-yl)pyrimidin-4-yl)-2-methylbenzyl)-3-(1-methylcyclopropyl)-1,2,4-oxadiazole-5-carboxamide], the IC50 in test [1] was below 0.1 µM; in test [2], at most 0.001 µM.

Consider `C=CC(=O)N1CCCC(c2cnccc2-c2ccc(CNC(=O)c3nc(C4(C)CC4)no3)c(C)c2)C1` (stereo not drawn) [Example 29, N-(4-(3-(1-acryloylpiperidin-3-yl)pyridin-4-yl)-2-methylbenzyl)-3-(1-methylcyclopropyl)-1,2,4-oxadiazole-5-carboxamide], for which the results for the IC50 in test [1] and in test [2] were above 1 µM and 0.001 to 0.01 µM, respectively.

For the compound `C=CC(=O)N(C)C1CCCN(c2cnccc2-c2ccc(CNC(=O)c3cnn(C(C)(C)C)c3)c(C)c2)C1` (stereo not drawn) [Example 42, 1-(tert-butyl)-N-(2-methyl-4-(3-(3-(N-methylacrylamido)piperidin-1-yl)pyridin-4-yl)benzyl)-1H-pyrazole-4-carboxamide], the results for the IC50 in test [1] and in test [2] were 0.1 to 1 µM and at most 0.001 µM, respectively.

`C=CC(=O)N(C)[C@@H]1CCCN(c2cnccc2-c2ccc(CNC(=O)c3noc(C(C)(C)C)n3)c(C)c2F)C1` (stereo in doubt) [Example 19, 5-(tert-butyl)-N-(3-fluoro-2-methyl-4-(3-(3-(N-methylacrylamido)piperidin-1-yl)pyridin-4-yl)benzyl)-1,2,4-oxadiazole-3-carboxamide]: the IC50 in test [1] is 0.1 to 1 µM; in test [2], at most 0.001 µM.

In the case of `C=CC(=O)N(C)[C@@H]1CCCN(c2cnccc2-c2ccc(CNC(=O)c3cn(C(C)(C)C)nn3)c(C)c2)C1` [Example 22, (R)-1-(tert-butyl)-N-(2-methyl-4-(3-(3-(N-methylacrylamido)piperidin-1-yl)pyridin-4-yl)benzyl)-1H-1,2,3-triazole-4-carboxamide], the IC50 in test [1] was below 0.1 µM; in test [2], at most 0.001 µM.

For `C=CC(=O)N(C)[C@H]1CCCN(c2cnccc2-c2ccc(CNC(=O)c3cn(C(C)(C)C)nn3)c(C)c2)C1` [Example 15, (S)-1-(tert-butyl)-N-(2-methyl-4-(3-(3-(N-methylacrylamido)piperidin-1-yl)pyridin-4-yl)benzyl)-1H-1,2,3-triazole-4-carboxamide], the IC50 in test [1] is above 1 µM; in test [2], above 0.01 µM.

For `Cc1cc(-c2ccncc2N2CCN(C(=O)/C=C/CN(C)C)CC2)ccc1CN(C)C(=O)c1noc(C(C)(C)C)n1` [Example 71, (E)-5-(tert-butyl)-N-(4-(3-(4-(4-(dimethylamino)but-2-enoyl)piperazin-1-yl)pyridin-4-yl)-2-methylbenzyl)-N-methyl-1,2,4-oxadiazole-3-carboxamide], the IC50 in test [1] was in the range of 0.1 to 1 µM; in test [2] it was 0.001 to 0.01 µM.

In the case of `C=CC(=O)N(C)C1CCCN(c2cnccc2-c2ccc(CNC(=O)c3ccc(C(F)(F)F)nc3)c(C)c2)C1` (stereo not drawn) [Example 41, N-(2-methyl-4-(3-(3-(N-methylacrylamido)piperidin-1-yl)pyridin-4-yl)benzyl)-6-(trifluoromethyl)nicotinamide], the IC50 is above 1 µM in test [1] and 0.001 to 0.01 µM in test [2].
